Results as given in patent publication US5451397A, “Bile acid sequestrant” (priority 1992, dated 1995).

Tested on: Chinese hamster ovary (CHO) cell cultures
Assay type: cell-based
Method: A suspension of particles of the sequestrant in deionized water was prepared. The suspension was serially diluted into serumless culture medium. The most concentrated suspension tested was 1000 micrograms sequestrant per milliliter suspension (μg/ml). Exponentially growing Chinese hamster ovary (CHO) cell cultures were treated with the sequestrant dilutions for three hours. The cultures were gently rocked on a rocker platform during treatment in an attempt to maintain a uniform suspension over the cells for the entire treatment period. Negative controls i.e., CHO cell cultures treated with serumless culture medium, and solvent controls, i.e., CHO cell cultures treated with 1% deionized water in serumless culture medium, were included. Treatment was terminated by washing the cultures twice with Dulbecco's phosphate buffered saline and cells were allowed to recover in McCoy's 5A medium containing 10% fetal bovine serum for 0, 5 or 21 hours, i.e., 3, 8 or 24 hours from the beginning of treatment. […] The harvested cells were counted by Coulter counter to determine relative reductions in cell numbers. At selected doses, Trypan blue exclusion counts were conducted using a hemacytometer to determine cell viability to control for the possibility that some dead cells may have been counted with the Coulter counter. […]

For “poly(dimethylaminopropylmethacrylamide) [Comparative Example C1]”, the “ED50 (dosage effective to kill 50% of the cells)” value was 10.0 µg/mL.
